Assay [1] addresses Beta5 (purified human constitutive proteasome) (Homo sapiens, UniProt P28074). Nature of the assay: Determination of Beta5 activity (fluorescence intensity assay, Suc-LLVY-AMC). The conditions noted are these: purified human constitutive proteasome 1.0 nM, 40 μM Suc-LLVY-AMC, 37° C. It is filed as biochemical. A digest of the protocol: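 Purified human constitutive proteasome (1.0 nM) was preincubated 30 min at 37 °C with compounds (10 μM to 38 pM) in 50 mM Tris pH 7.4, 0.03% SDS. Suc-LLVY-AMC (40 μM) was then added and fluorescence (ex 350/em 450 nm) read after 90 min at 37 °C.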

For assay [2], the target named is LMP7 (purified human immuno proteasome) (Homo sapiens, UniProt P28062). Nature of the assay: Determination of LMP7 activity (fluorescence intensity assay, Suc-LLVY-AMC). It is filed as biochemical. The conditions noted are these: for IC50: 40 μM Suc-LLVY-AMC, 37° C. A digest of the protocol: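 Purified human immunoproteasome (0.5 nM or 0.25 nM) preincubated 30 min at 37 °C with compounds (10 μM to 38 pM) in 50 mM Tris pH 7.4, 0.03% SDS. Suc-LLVY-AMC added at 40 μM; after 90 min at 37 °C, fluorescence read at ex 350/em 450 nm.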

[3] abbreviates: purified human immuno proteasome 0.5 nM.
[4] abbreviates: purified human immuno proteasome 0.25 nM (examples 79, 80, 83, 84, 85, 87, 88, 89, 90, 91, 93, 94, 96, 97, 101 and 110).

Counter-ions that a name gives are not always drawn.

Take `CCc1cccc(C[C@H](NC(=O)CCn2nnc3ccccc32)B(O)O)c1` [Example 31, [(1R)-1-{[3-(1H-1,2,3-benzotriazol-1-yl)propanoyl]amino}-2-(3-ethylphenyl)ethyl]boronic acid]: the IC50 was 50 to 500 nM in assay [1] and less than 50 nM in assay [2] (setting [3]). Further, the “Selectivity LMP7 vs Beta5” value in assay [2] is reported as “++ (++: 10 < Selectivity < 30)”.

Consider `CCc1cccc(C[C@H](NC(=O)[C@@H](CC(=O)c2ccccc2)c2ccc(Cl)cc2)B(O)O)c1` (single isomer, unassigned) [Example 16], for which the figures for the IC50 in assay [1] and in assay [2] (setting [3]) were more than 5000 nM and 500 to 5000 nM, respectively.

With `O=C(CCn1cnc2ccccc21)N[C@@H](Cc1cccc(OC(F)(F)F)c1)B(O)O` [Example 59, (R)-(1-(3-(1H-benzo[d]imidazol-1-yl)propanamido)-2-(3-(trifluoromethoxy)phenyl)ethyl)boronic acid], the IC50 in assay [1] was 50 to 500 nM; in assay [2] (setting [3]), less than 50 nM. Besides, the “Selectivity LMP7 vs Beta5” value in assay [2] is listed as “+ (+: Selectivity < 10)”.

In the case of `COc1ccc(C(=O)CCC(=O)N[C@@H](Cc2ccc(F)c(C(F)(F)F)c2)B(O)O)cc1` [Example 50, (R)-(2-(4-fluoro-3-(trifluoromethyl)phenyl)-1-(4-(4-methoxyphenyl)-4-oxobutanamido)ethyl)boronic acid], the IC50 in assay [1] is more than 5000 nM; in assay [2] (setting [3]), 50 to 500 nM. For the same compound, the “Selectivity LMP7 vs Beta5” value in assay [2] is given as “++ (++: 10 < Selectivity < 30)”.

For the compound `CCc1cccc(C[C@H](NC(=O)CCc2noc(-c3ccccc3)n2)B(O)O)c1` [Example 36, ((1R)-2-(3-ethylphenyl)-1-{[3-(5-phenyl-1,2,4-oxadiazol-3-yl)propanoyl]amino}ethyl)boronic acid], the results for the IC50 in assay [1] and in assay [2] (setting [3]) were 500 to 5000 nM and less than 50 nM, respectively. For the same compound, in assay [2], the “Selectivity LMP7 vs Beta5” value is “+++ (+++: Selectivity > 30)”.

For the compound `CCc1cccc(C[C@H](NC(=O)CCn2cc(-c3ccc(OC)cc3)nn2)B(O)O)c1` [Example 75, (R)-(2-(3-ethylphenyl)-1-(3-(4-(4-methoxyphenyl)-1H-1,2,3-triazol-1-yl)propanamido)ethyl)boronic acid], the IC50 in assay [1] is 50 to 500 nM; in assay [2] (setting [3]), less than 50 nM. Further, in assay [2], the “Selectivity LMP7 vs Beta5” value is “+++ (+++: Selectivity > 30)”.

With `O=C(CCn1c(=O)sc2ccccc21)N[C@@H](Cc1c[nH]c2ccccc12)B(O)O` [Example 101], the IC50 in assay [1] and in assay [2] (setting [4]) was less than 50 nM in each case. Moreover, the “Selectivity LMP7 vs Beta5” value in assay [2] is listed as “+++ (+++: Selectivity > 30)”.

As for `CCc1cccc(C[C@H](NC(=O)Cn2ccc3ccccc3c2=O)B(O)O)c1` [Example 42, ((1R)-2-(3-ethylphenyl)-1-{[(1-oxoisoquinolin-2(1H)-yl)acetyl]amino}ethyl)boronic acid], the IC50 in assay [1] was in the range of 500 to 5000 nM; in assay [2] (setting [3]), 50 to 500 nM. Moreover, the “Selectivity LMP7 vs Beta5” value in assay [2] is on record as “++ (++: 10 < Selectivity < 30)”.

With `CCc1cccc(C[C@H](NC(=O)CCC(=O)c2ccc3ccccc3c2)B(O)O)c1` [Example 18, ((1R)-2-(3-ethylphenyl)-1-{[4-(2-naphthyl)-4-oxobutanoyl]amino}ethyl)boronic acid], the IC50 was in the range of 500 to 5000 nM in assay [1] and 50 to 500 nM in assay [2] (setting [3]). Moreover, the “Selectivity LMP7 vs Beta5” value in assay [2] was “+++ (+++: Selectivity > 30)”.

Regarding `O=C(CCc1ccncc1)N[C@@H](Cc1coc2ccccc12)B(O)O` [Example 93, (R)-(2-(benzofuran-3-yl)-1-(3-(pyridin-4-yl)propanamido)ethyl)boronic acid hydrochloride], the IC50 in assay [1] and in assay [2] (setting [4]) was less than 50 nM each time. In addition, the “Selectivity LMP7 vs Beta5” value in assay [2] was “++ (++: 10 < Selectivity < 30)”.

Turning to `COc1cc(F)cc(C[C@H](NC(=O)CCc2noc(-c3ccccc3)n2)B(O)O)c1` [Example 61, (R)-(2-(3-fluoro-5-methoxyphenyl)-1-(3-(5-phenyl-1,2,4-oxadiazol-3-yl)propanamido)ethyl)boronic acid], the IC50 is 500 to 5000 nM in assay [1] and less than 50 nM in assay [2] (setting [3]). In addition, the “Selectivity LMP7 vs Beta5” value in assay [2] is “+++ (+++: Selectivity > 30)”.

`O=C(CCC(=O)c1cccc(-c2ccccc2)n1)N[C@@H](Cc1ccsc1)B(O)O` [Example 23, [(1R)-1-{[4-oxo-4-(6-phenylpyridin-2-yl)butanoyl]amino}-2-(3-thienyl)ethyl]boronic acid]: the IC50 is 500 to 5000 nM in assay [1] and 50 to 500 nM in assay [2] (setting [3]). The “Selectivity LMP7 vs Beta5” value in assay [2] is given as “++ (++: 10 < Selectivity < 30)”.

Consider `O=C(CCn1cnc2ccccc21)N[C@@H](Cc1ccc2ccccc2c1)B(O)O` [Example 97, (R)-(1-(3-(1H-benzo[d]imidazol-1-yl)propanamido)-2-(naphthalen-2-yl)ethyl)boronic acid], for which the IC50 in assay [1] and in assay [2] (setting [4]) was less than 50 nM in each case. Further, in assay [2], the “Selectivity LMP7 vs Beta5” value is listed as “++ (++: 10 < Selectivity < 30)”.

On to `O=C(CCc1ccccc1F)N[C@@H](Cc1coc2ccccc12)B(O)O` [Example 81, (R)-(2-(benzofuran-3-yl)-1-(3-(2-fluorophenyl)propanamido)ethyl) boronic acid], for which the IC50 in assay [1] and in assay [2] (setting [3]) was less than 50 nM in each case. In addition, in assay [2], the “Selectivity LMP7 vs Beta5” value is recorded as “++ (++: 10 < Selectivity < 30)”.

As to `CCc1cccc(C[C@H](NC(=O)CCn2cc(-c3cccc(OC)c3)nn2)B(O)O)c1` [Example 74, (R)-(2-(3-ethylphenyl)-1-(3-(4-(3-methoxyphenyl)-1H-1,2,3-triazol-1-yl)propanamido)ethyl)boronic acid], the IC50 in assay [1] was 50 to 500 nM; in assay [2] (setting [3]), less than 50 nM. Besides, the “Selectivity LMP7 vs Beta5” value in assay [2] is reported as “+++ (+++: Selectivity > 30)”.

With `CCc1cccc(C[C@H](NC(=O)CCc2cn(-c3ccccc3)nn2)B(O)O)c1` [Example 58, (R)-(2-(3-ethylphenyl)-1-(3-(1-phenyl-1H-1,2,3-triazol-4-yl)propanamido)ethyl)boronic acid], the IC50 in assay [1] is more than 5000 nM; in assay [2] (setting [3]), 50 to 500 nM. Also, the “Selectivity LMP7 vs Beta5” value in assay [2] is reported as “+++ (+++: Selectivity > 30)”.

Consider `O=C(CCC(=O)c1ccccc1)N[C@@H](Cc1ccsc1)B(O)O` [Example 1, [(1R)-1-[(4-oxo-4-phenylbutanoyl)amino]-2-(3-thienyl)ethyl]boronic acid], for which the results for the IC50 in assay [1] and in assay [2] (setting [3]) were 500 to 5000 nM and 50 to 500 nM, respectively. The “Selectivity LMP7 vs Beta5” value in assay [2] was “++ (++: 10 < Selectivity < 30)”.

For `COc1ccc(CCC(=O)N[C@@H](Cc2coc3ccccc23)B(O)O)cc1` [Example 79, (R)-(2-(benzofuran-3-yl)-1-(3-(4-methoxyphenyl)propanamido)ethyl) boronic acid], the IC50 in assay [1] was 50 to 500 nM; in assay [2] (setting [4]) it was less than 50 nM. In addition, in assay [2], the “Selectivity LMP7 vs Beta5” value was “+++ (+++: Selectivity > 30)”.

`COc1ccc(-n2cc(CCC(=O)N[C@@H](Cc3coc4ccccc34)B(O)O)nn2)cc1` [Example 90, (R)-(2-(benzofuran-3-yl)-1-(3-(1-(4-methoxyphenyl)-1H-1,2,3-triazol-4-yl)propanamido)ethyl)boronic acid]: the IC50 in assay [1] and in assay [2] (setting [4]) was less than 50 nM each time. In addition, in assay [2], the “Selectivity LMP7 vs Beta5” value is “+++ (+++: Selectivity > 30)”.

Turning to `CC(CC(=O)c1ccccc1)C(=O)N[C@@H](Cc1ccsc1)B(O)O` (mixture of isomers) [Example 10, [(1R)-1-[(2-(RS)-methyl-4-oxo-4-phenylbutanoyl)amino]-2-(3-thienyl)ethyl]boronic acid], the IC50 is more than 5000 nM in assay [1] and 500 to 5000 nM in assay [2] (setting [3]).

For `CCc1cccc(C[C@H](NC(=O)CCC(=O)c2ccc(OC)cc2)B(O)O)c1` [Example 7, ((1R)-2-(3-ethylphenyl)-1-{[4-(4-methoxyphenyl)-4-oxobutanoyl]amino}ethyl)boronic acid], the IC50 was more than 5000 nM in assay [1] and 50 to 500 nM in assay [2] (setting [3]). The “Selectivity LMP7 vs Beta5” value in assay [2] is on record as “+++ (+++: Selectivity > 30)”.

As for `O=C(CCn1cnc2ccccc21)N[C@@H](Cc1cccc(C(F)(F)F)c1)B(O)O` [Example 38, {(1R)-1-{[3-(1H-benzimidazol-1-yl)propanoyl]amino}-2-[3-(trifluoromethyl)phenyl]ethyl}boronic acid], the values for the IC50 in assay [1] and in assay [2] (setting [3]) were 50 to 500 nM and less than 50 nM, respectively. Also, the “Selectivity LMP7 vs Beta5” value in assay [2] was “++ (++: 10 < Selectivity < 30)”.

In the case of `O=C(CCn1ncc2ccccc21)N[C@@H](Cc1ccsc1)B(O)O` [Example 32, [(1R)-1-{[3-(1H-indazol-1-yl)propanoyl]amino}-2-(3-thienyl)ethyl]boronic acid], the IC50 in assay [1] and in assay [2] (setting [3]) was 50 to 500 nM throughout. Further, the “Selectivity LMP7 vs Beta5” value in assay [2] is “+ (+: Selectivity < 10)”.

In the case of `O=C(CCn1cnc2ccccc21)N[C@@H](Cc1ccsc1)B(O)O` [Example 33, [(1R)-1-{[3-(1H-benzimidazol-1-yl)propanoyl]amino}-2-(3-thienyl)ethyl]boronic acid], the IC50 in assay [1] and in assay [2] (setting [3]) was 50 to 500 nM in each case. Also, the “Selectivity LMP7 vs Beta5” value in assay [2] is on record as “+ (+: Selectivity < 10)”.

`O=C(CCC1CCCCC1)N[C@@H](Cc1coc2ccccc12)B(O)O` [Example 86, (R)-(2-(benzofuran-3-yl)-1-(3-cyclohexylpropanamido)ethyl)boronic acid]: the values for the IC50 in assay [1] and in assay [2] (setting [3]) were 50 to 500 nM and less than 50 nM, respectively. In addition, the “Selectivity LMP7 vs Beta5” value in assay [2] is recorded as “+++ (+++: Selectivity > 30)”.

For `CCc1cccc(C[C@H](NC(=O)CCC(=O)c2ccccc2)B(O)O)c1` [Example 6, {(1R)-2-(3-ethylphenyl)-1-[(4-oxo-4-phenylbutanoyl)amino]ethyl}boronic acid], the IC50 in assay [1] is more than 5000 nM; in assay [2] (setting [3]), 50 to 500 nM. Moreover, the “Selectivity LMP7 vs Beta5” value in assay [2] is on record as “+++ (+++: Selectivity > 30)”.

These data come from patent US9688702B2, “Alpha-amino boronic acid derivatives, selective immunoproteasome inhibitors” (Ares Trading S.A, priority 2011, dated 2017).
